Consider twelve compounds from ChEMBL document CHEMBL1201862, “PubChem BioAssay data set” (2004).

Molecules are shown by their SMILES.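 48-hour exposure; five concentrations; linearly interpolated endpoints. Abbreviation: GI50, concentration required for 50% inhibition of growth.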 Activity calls are given as the source filed them. No stated cut-off is given here; in the data, active = GI50 up to about 1.1 µM and inactive = higher.

What all share (experiment): inhibition of tumour cell growth, NCI panel, 48 h
Assay [1] concerns COLO 205.
For assay [2], the system named is NCI-H460.
Assay [3] deals with LOX IMVI.
In assay [4] the test system is UO-31.
For assay [5], the system named is UACC-257.
The subject of assay [6] is HCT-15.
The test system of assay [7] is HT-29.
The test system of assay [8] is OVCAR-3.
Assay [9] has as its system RXF 393.
The test system of assay [10] is 786-0.
Assay [11] has as its system OVCAR-4.
Assay [12] concerns SF-268.
The subject of assay [13] is HCT-116.
Assay [14] relates to SW-620.
Assay [15] deals with HL-60.
In assay [16] the test system is RPMI-8226.
Assay [17] deals with NCI-H226.
In assay [18] the test system is CAKI-1.

`O=C(O)Cn1c(=O)[nH]c(=O)c2[nH]cnc21`: the GI50 is > 100 µM (inactive) in [1]; > 100 µM (inactive) in assay [2]; > 100 µM (inactive) in assay [3]; > 100 µM (inactive) in [4]; > 100 µM (inactive) in assay [5]; above 100 µM in assay [6]. For the same compound, the GI50 in [7], in [8], in [9], in [10], in [11] and in [12] was > 100 µM (inactive) in each case. Besides, the GI50 in assay [13], in [14] and in assay [15] was > 100 µM (inactive) each time.

Consider `O=C(NCC(=O)N1CCOC1=O)OCc1ccccc1`, for which the GI50 in assay [1], in [2], in [3], in assay [4], in assay [5] and in assay [16] was > 100 µM (inactive) throughout. The GI50 in assay [6] was above 100 µM; in [7], > 100 µM (inactive); in assay [8], > 100 µM (inactive); in [9], > 100 µM (inactive); in assay [10] it was > 100 µM (inactive); in assay [11], > 100 µM (inactive). In addition, the GI50 in assay [12], in [13], in [17], in [14] and in assay [15] was > 100 µM (inactive) in each case.

In the case of `CC(=O)OC1CCn2nnc(CO[Si](C)(C)C(C)(C)C)c21` (configuration not stated), the GI50 in [1], in [2], in assay [4], in assay [5], in [16] and in [18] was > 100 µM (inactive) in each case. The GI50 in assay [6] was above 100 µM; in assay [7] it was > 100 µM (inactive); in assay [8], > 100 µM (inactive); in assay [9], > 100 µM (inactive); in assay [10], > 100 µM (inactive); in [11] it was > 100 µM (inactive). In addition, the GI50 in assay [13], in assay [17] and in [14] was > 100 µM (inactive) in each case.

For the compound `OC1=CN=C(c2ccccc2)Oc2ccccc21`, the GI50 in assay [1], in [2], in [3], in assay [4], in assay [5] and in [16] was > 100 µM (inactive) throughout. Also, the GI50 was above 100 µM in [6]; > 100 µM (inactive) in assay [7]; 15.3 µM (inactive) in assay [8]; > 100 µM (inactive) in assay [9]; 46.7 µM (inactive) in assay [10]; 47.6 µM (inactive) in assay [11]. Also, the GI50 was 41.4 µM (inactive) in assay [12]; 45.4 µM (inactive) in assay [13]; 33 µM (inactive) in [17]; > 100 µM (inactive) in assay [14]; > 100 µM (inactive) in assay [15].

For the compound `CN(O)C(=O)Cc1ccccc1`, the GI50 in assay [1], in assay [2], in [3], in assay [4], in assay [5] and in assay [16] was > 100 µM (inactive) throughout. Also, the GI50 in assay [18], in assay [7], in assay [8], in [9], in [10] and in [11] was > 100 µM (inactive) each time. The GI50 in assay [12], in assay [13], in [17], in assay [14] and in [15] was > 100 µM (inactive) in each case.

As for `CC(C)(C)c1ccc2c(c1)C(O)(c1ccccc1)c1cc(C(C)(C)C)ccc1C2(O)C(F)(F)F` (configuration not stated), the GI50 in assay [1] was 1.82 µM (inactive); in [2] it was 1.61 µM (inactive); in assay [3], 1.82 µM (inactive); in assay [4], 2.11 µM (inactive); in assay [5], 2.33 µM (inactive); in [18], 1.74 µM (inactive). Besides, the GI50 in [6] is 1.39 µM; in assay [7], 1.57 µM (inactive); in assay [8] it was 1.94 µM (inactive); in assay [9] it was 1.82 µM (inactive); in assay [10] it was 1.88 µM (inactive); in assay [11], 1.83 µM (inactive). Moreover, the GI50 in assay [12] was 2.27 µM (inactive); in assay [13], 1.87 µM (inactive); in [17], 1.05 µM (active); in assay [14], 1.88 µM (inactive); in [15], 2.29 µM (inactive).

For the compound `COc1ccc2c(c1)N1CCc3cc(OC)c(OC)cc3C1C2` (configuration not stated), the GI50 in [1] is > 100 µM (inactive); in assay [2], 52.4 µM (inactive); in assay [3] it was 98.6 µM (inactive); in assay [4] it was 85.9 µM (inactive); in assay [5] it was 57.9 µM (inactive); in [18], 53.2 µM (inactive). Also, the GI50 was 70.3 µM (inactive) in [7]; 65 µM (inactive) in assay [9]; 54.6 µM (inactive) in assay [10]; 33.8 µM (inactive) in assay [11]; > 100 µM (inactive) in [12]; 35.5 µM (inactive) in assay [17]. Further, the results for the GI50 in [14] and in assay [15] were > 100 µM (inactive) and 26.2 µM (inactive), respectively.

Regarding `O=c1[nH]c(=O)n(C2CC(O)C(CO)O2)cc1C#Cc1ccc(F)cc1` (configuration not stated), the GI50 in [1], in assay [2], in assay [3], in assay [4], in assay [5] and in [16] was > 100 µM (inactive) each time. For the same compound, the GI50 in [18] was > 100 µM (inactive); in [6] it was above 100 µM; in [7], > 100 µM (inactive); in assay [8] it was > 100 µM (inactive); in assay [10], > 100 µM (inactive); in assay [11] it was 25.8 µM (inactive). In addition, the GI50 in assay [12], in assay [17] and in [14] was > 100 µM (inactive) each time.

As for `Cc1ccc(NC(=O)CSc2nnc(-c3ccc(/N=C\c4ccc(Cl)cc4)cc3)o2)cc1`, the GI50 in [1], in assay [2], in assay [3], in assay [4], in assay [5] and in assay [16] was > 100 µM (inactive) throughout. Moreover, the GI50 in assay [6] is above 100 µM; in assay [7], > 100 µM (inactive); in assay [9], > 100 µM (inactive); in assay [10] it was > 100 µM (inactive); in assay [11], > 100 µM (inactive); in assay [12] it was > 100 µM (inactive). Besides, the GI50 in assay [13], in [17], in assay [14] and in assay [15] was > 100 µM (inactive) in each case.

As to `O=C1OC(c2ccccc2)=N/C1=C\c1ccc2ccccc2c1`, the GI50 in assay [1], in assay [2], in assay [3], in assay [4], in assay [5] and in assay [16] was > 100 µM (inactive) throughout. Further, the GI50 in [18] is > 100 µM (inactive); in assay [6], above 100 µM; in assay [7] it was > 100 µM (inactive); in assay [8], > 100 µM (inactive); in [9], > 100 µM (inactive); in assay [10], > 100 µM (inactive). Besides, the GI50 in [11], in [12], in assay [13] and in assay [14] was > 100 µM (inactive) in each case.

`CCOC(=O)c1nc(C)oc1C(F)(F)F`: the GI50 in [1], in assay [2], in [3], in [4], in [5] and in assay [18] was > 100 µM (inactive) throughout. Further, the GI50 in assay [6] is above 100 µM; in assay [7] it was > 100 µM (inactive); in [8] it was > 100 µM (inactive); in [9], > 100 µM (inactive); in [10], > 100 µM (inactive); in [11], > 100 µM (inactive). Further, the GI50 in [12], in assay [13], in assay [17], in assay [14] and in assay [15] was > 100 µM (inactive) each time.

Turning to `OC(CCl)CN1CC[N+]2(CC1)CC[N+]1(CCN(CC(O)CCl)CC1)CC2` (configuration not stated) [PROSPIDIUM CHLORIDE], the GI50 in assay [1] is > 50 µM (inactive); in [2] it was > 50 µM (inactive); in assay [4], > 50 µM (inactive); in assay [16] it was > 50 µM (inactive); in assay [18], > 50 µM (inactive); in assay [6], above 50 µM. Besides, the GI50 in [7], in assay [8], in assay [9], in assay [10], in [11] and in assay [12] was > 50 µM (inactive) each time. In addition, the GI50 in assay [13], in assay [17], in assay [14] and in assay [15] was > 50 µM (inactive) each time.
